Drawing on PubChem BioAssay (NCI), this text covers TGI and GI50 for ten compounds.

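Step 1: Grow cells in 96-well plates. Step 2: Expose to compound for 48 hours at 5 concentrations. Step 3: Interpolate endpoints linearly; if unreached, use highest concentration. GI50 is the concentration that inhibits growth by half. At the TGI there is no net growth.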

Holding throughout (assay): growth of human tumour cells (NCI), 48 h
Experiment [1] concerns U251 CNS.
The test system of experiment [2] is HCC-2998 colon.
In experiment [3] the test system is SNB-75 CNS.
Experiment [4] relates to SNB-19 CNS.
Experiment [5] relates to KM12 colon.
Experiment [6] concerns COLO 205 colon.
Experiment [7] relates to UACC-257 melanoma.
Experiment [8] has as its system NCI-H23 lung.
The subject of experiment [9] is HT29 colon.
The test system of experiment [10] is RPMI-8226 leukemia.

`O=CNc1cccc2c3c([nH]c12)CCCCCC3`: the TGI in experiment [1], in experiment [2], in [3], in experiment [4], in experiment [5] and in experiment [6] was more than 100 µM throughout. The TGI in experiment [7], in [8] and in experiment [9] was more than 100 µM throughout.

`CCCCc1ccc2[n+](c1)C(C(=O)OCC)=PC2` (centres undefined): the TGI in experiment [1], in experiment [2], in [3], in experiment [5], in experiment [6] and in experiment [7] was more than 100 µM in each case. For the same compound, the TGI in [8], in [10] and in experiment [9] was more than 100 µM in each case.

With `Cc1cc(NS(=O)(=O)c2ccc(Nc3c4ccccc4nc4c(C(=O)NCCN(C)C)ccc(Cl)c34)cc2)no1`, the TGI in [1] turned out to be 13.6 µM; in experiment [3], 11.9 µM; in [4], 9.68 µM; in experiment [5], 19.3 µM; in experiment [6], 14.9 µM; in experiment [8], 16.1 µM. The compound also came in with a TGI in experiment [9] of 14.4 µM.

For `COc1ccc(C(=O)Cc2cc(OC)ccc2OC)cc1`, the TGI in experiment [1] is more than 100 µM; in experiment [2], more than 100 µM; in [3] it was 60.1 µM; in experiment [4] it was more than 100 µM; in [6], more than 100 µM; in experiment [7], more than 100 µM. For the same compound, the TGI in experiment [8], in experiment [10] and in [9] was more than 100 µM each time.

As to `C=C1C(=O)O[C@H]2C1[C@H](OC(=O)/C(C)=C\COC(C)=O)C[C@]1(CO1)[C@@H]1[C@H](O)[C@H]3O[C@@]3(C)[C@@H]12` (some centres undefined), the TGI is 44.7 µM in experiment [1]; 22.2 µM in [2]; more than 96.2 µM in experiment [3]; more than 100 µM in [4]; 29.5 µM in experiment [5]; 21.9 µM in [6]. For the same compound, the TGI is 31.3 µM in experiment [7], 29.7 µM in [8], 46.5 µM in experiment [10] and 40.8 µM in [9].

For `O=C1c2ccccc2-c2ccc(NC(=O)C3CCCCC3C(=O)O)cc21` (centres undefined), the TGI in experiment [1], in experiment [3], in experiment [4], in [5], in [6] and in experiment [7] was more than 100 µM each time. Also, the TGI in experiment [8], in experiment [10] and in experiment [9] was more than 100 µM throughout.

For `COc1cc(N=Nc2cccc(S(=O)(=O)O)c2)c(C)cc1N=Nc1ccc(/C=C/c2ccc(N=[N+]([O-])c3ccc(/C=C/c4ccc(N=Nc5cc(C)c(N=Nc6cccc(S(=O)(=O)O)c6)cc5OC)cc4)c(S(=O)(=O)O)c3)cc2S(=O)(=O)O)cc1`, the TGI in [1], in experiment [2], in experiment [3], in [4], in experiment [5] and in experiment [6] was more than 100 µM throughout. Besides, the TGI in experiment [7], in experiment [8] and in experiment [9] was more than 100 µM each time.

Take `COC(=O)C(C)N1C(=O)c2ccccc2I1OC(C)=O` (centres undefined): the GI50 in [1] is 34.8 µM; in [2], 17.4 µM; in experiment [3] it was 60.8 µM; in [4] it was more than 100 µM; in experiment [5] it was more than 100 µM; in [6], 14.4 µM. For the same compound, the GI50 in experiment [7] was more than 100 µM; in [8], 40.3 µM; in experiment [10], 15.3 µM; in experiment [9], 26.3 µM. Moreover, the TGI in experiment [1] was more than 100 µM; in experiment [2], 38.4 µM; in [3], more than 100 µM; in experiment [4], more than 100 µM; in [5], more than 100 µM; in experiment [6], 35 µM. Also, the TGI is more than 100 µM in [7], more than 100 µM in [8], 37.6 µM in experiment [10] and 97.5 µM in experiment [9].

As for `CCOC(=O)C1C(c2cc(OC)c(O)c(OC)c2)c2cc3c(cc2OC1(C)O)OCO3` (centres undefined), the TGI in [1] is more than 100 µM; in [3], 77.9 µM; in experiment [4] it was more than 100 µM; in experiment [6], more than 100 µM; in experiment [7] it was more than 100 µM; in [8] it was more than 100 µM. In addition, the TGI in experiment [10] and in experiment [9] was more than 100 µM throughout.

Consider `CC(C)=CCN(N=O)c1ncnc2nc[nH]c12`, for which the TGI in experiment [2], in experiment [3], in [4], in experiment [5], in [6] and in experiment [7] was more than 100 µM throughout. Moreover, the TGI in [8], in experiment [10] and in [9] was more than 100 µM in each case.
